Experimental data published in patent publication US11034980B2, “Microbial engineering for the production of isoprenoids” (Massachusetts Institute of Technology, priority 2018, dated 2021).
Read-outs that look alike come from different tables or passages of the source.

Experiments:
[1] = target: T1, isopentenyl phosphate kinase (IPK) (Arabidopsis thaliana, UniProt Q8H1F7); assay: IPK kinetics by ATP consumption, PK-LDH coupled NADH assay; type: biochemical; settings: 10 mM ATP, 30° C., pH 7.4
T1 construct: Arabidopsis thaliana (AAN12957.1), codon optimized; made in house; host or cells: E. coli BL21 (DE3)
T1 sequence (Q8H1F7 1-332): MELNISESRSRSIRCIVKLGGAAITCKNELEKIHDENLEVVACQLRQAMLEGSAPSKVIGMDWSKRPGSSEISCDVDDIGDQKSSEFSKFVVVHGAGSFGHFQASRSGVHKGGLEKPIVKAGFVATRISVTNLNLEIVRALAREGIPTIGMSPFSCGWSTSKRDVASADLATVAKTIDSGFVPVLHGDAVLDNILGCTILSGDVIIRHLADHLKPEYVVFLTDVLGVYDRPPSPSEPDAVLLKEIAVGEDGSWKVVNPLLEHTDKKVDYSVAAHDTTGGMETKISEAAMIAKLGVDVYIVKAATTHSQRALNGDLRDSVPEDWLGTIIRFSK
Method: A single colony from each strain containing one plasmid for the expression of a single enzyme was inoculated into 5 mL of sterile LB media (BD Sciences) with kanamycin and grown overnight at 37° C. One milliliter was then inoculated into a 1 L flask containing 200 mL of sterile SOB media (AMERSCO) with kanamycin. The culture was grown at 30° C. until an optical density (OD) of 0.4-0.6 (λ=600 nm). At this point protein production was induced by the addition of IPTG for a final concentration of 0.1 mM and continued at 30° C. for 3 h. Cells were harvested by centrifugation at 3750 rpm in an Allegra X12R centrifuge (Beckman-Coulter). The supernatant was removed and the cell pellets were frozen at −20° C. until purification. Proteins were visualized by SDS-PAGE performed accordingly to the manufacturer's guidelines (Bio-rad). Gradient (4-20%) gels were purchased from Biorad, as were the Kaleidoscope pre-stained protein ladder, Laemmli 4× sample buffer, Tris-glycine-SDS buffer, and mini-protean electrophoresis chambers. Gels were stained using Instant-Blue (Expedeon). Protein concentrations were very roughly estimated from the gel using Image J (NIH) in order to determine an appropriate amount of resin for purification. Protein Purification All purification steps were performed in a single day on ice and in a cold room when possible. Cell pellets were thawed and resuspended in 30 mL of NPI-10 buffer (50 mM NaH2PO4, 300 mM NaCl, 10 mM imidazole, pH 8.0) and supplemented with 0.5 mM PMSF immediately prior to cell lysis. Cells were lysed by 2-3 passages through an EmulsiFlex-C5 high-pressure homogenizer (Avestin). Lysates were then centrifuged at 4 C for 15 min to remove cellular debris. The clarified lysate was loaded onto a Ni-NTA resin (Gold Bio, capacity 50 mg/mL) which was housed in a gravity column (Thermofisher) and was pre-equilibrated with 10 column volumes (CV) of NPI-10 buffer. The column was then washed with 10 CV of NPI-20 buffer (20 mM imidazole). The enzyme was then eluted from the column by 3 CV using NPI-250 buffer (250 mM imidazole). Enzymes were then exchanged into 50 mM Tris-HCl pH 7.5 using 10 kDa Microseps (Millipore) by centrifugation and repeated buffer exchanges until the imidazole was calculated to be under 1 mM. […] Enzyme concentration was determined using a bicinchoninic acid (BCA) assay kit from Pierce using bovine serum albumin as a standard (BSA). […] The kinetics for CK were previously determined as described. The kinetics for IPK were determined by ATP consumption using a pyruvate kinase (PK) lactate dehydrogenase (LDH) coupled assay (FIGS. 16A & 16B). […] NADH was made fresh each time and the appropriate concentration was determined by constructing a standard curve using a SpectraMax M3 and selecting the highest value in the linear range. […]

IPK = target: T2, IPK (Arabidopsis thaliana, UniProt Q8H1F7); assay: Metabolic control analysis (lin-log elasticities) of multi-enzyme perturbation study; type: biochemical; settings: lin-log kinetics, 60 min, 5 mM isoprenol, 10 mM ATP
T2 construct: Arabidopsis thaliana (AAN12957.1), codon optimized; made in house; host or cells: E. coli BL21 (DE3)
T2 sequence (Q8H1F7 1-332): T1 sequence (Q8H1F7 1-332)
Method: (§1) In order to identify a PSS, an in vitro reaction was run, using the optimal enzyme concentrations, as predicted from the initial perturbation study, using a “main interactions only” linear regression model. A time profile of metabolic intermediate concentrations was constructed (FIG. 32). […] The reaction was stopped at 60 min in the repeat experiment.
(§2) [formula] where i represents the unit vector, v represents the relative flux compared to the reference state flux J^0, E^x0 represents the elasticity matrix for the metabolic intermediate concentrations (x^0) in relation to the enzyme concentration compared to the reference state as designed by e/e^0 and the relative intermediate metabolic concentrations compared to the reference state (x/x^0).
(§3) By applying this model to the data generated in the large perturbation study and alternating the designated reference state, 25 sets of elasticities were generated, using the maximum connectivity assumption to calculate the elasticity of every enzyme for each measured metabolite.

CK = target: T3, CK (Saccharomyces cerevisiae, UniProt P20485); assay: as above; type: biochemical; settings: lin-log kinetics, 60 min, 5 mM isoprenol, 10 mM ATP
T3 construct: S. cerevisiae (AAA34499.1), codon optimized; made in house; host or cells: E. coli BL21 (DE3)
T3 sequence (P20485 1-582): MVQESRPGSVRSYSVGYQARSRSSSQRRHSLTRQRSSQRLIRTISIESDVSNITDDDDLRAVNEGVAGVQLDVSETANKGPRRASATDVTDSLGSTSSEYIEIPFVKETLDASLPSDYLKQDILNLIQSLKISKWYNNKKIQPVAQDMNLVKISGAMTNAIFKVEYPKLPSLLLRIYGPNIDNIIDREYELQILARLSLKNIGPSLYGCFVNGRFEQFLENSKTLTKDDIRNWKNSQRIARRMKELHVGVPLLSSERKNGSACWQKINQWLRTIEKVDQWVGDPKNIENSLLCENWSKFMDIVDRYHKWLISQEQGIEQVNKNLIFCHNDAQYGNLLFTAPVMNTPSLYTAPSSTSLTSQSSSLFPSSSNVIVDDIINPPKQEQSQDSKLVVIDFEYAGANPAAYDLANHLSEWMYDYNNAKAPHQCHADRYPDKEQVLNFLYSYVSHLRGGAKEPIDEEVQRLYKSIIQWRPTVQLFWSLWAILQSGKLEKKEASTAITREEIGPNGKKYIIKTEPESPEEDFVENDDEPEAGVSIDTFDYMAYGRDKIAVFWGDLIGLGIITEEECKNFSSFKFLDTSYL
Method: as §1, §2, §3

Taxadiene Synthase (TDS) = target: T4, Taxadiene Synthase (TDS) (Taxus brevifolia, UniProt Q41594); assay: TDS activity by pyrophosphate assay; type: biochemical; settings: 30° C., pH 7.4
T4 construct: truncated first 60 amino acids, methionine added; made in house; host or cells: E. coli BL21 (DE3)
T4 sequence (Q41594 61-862 limits assumed): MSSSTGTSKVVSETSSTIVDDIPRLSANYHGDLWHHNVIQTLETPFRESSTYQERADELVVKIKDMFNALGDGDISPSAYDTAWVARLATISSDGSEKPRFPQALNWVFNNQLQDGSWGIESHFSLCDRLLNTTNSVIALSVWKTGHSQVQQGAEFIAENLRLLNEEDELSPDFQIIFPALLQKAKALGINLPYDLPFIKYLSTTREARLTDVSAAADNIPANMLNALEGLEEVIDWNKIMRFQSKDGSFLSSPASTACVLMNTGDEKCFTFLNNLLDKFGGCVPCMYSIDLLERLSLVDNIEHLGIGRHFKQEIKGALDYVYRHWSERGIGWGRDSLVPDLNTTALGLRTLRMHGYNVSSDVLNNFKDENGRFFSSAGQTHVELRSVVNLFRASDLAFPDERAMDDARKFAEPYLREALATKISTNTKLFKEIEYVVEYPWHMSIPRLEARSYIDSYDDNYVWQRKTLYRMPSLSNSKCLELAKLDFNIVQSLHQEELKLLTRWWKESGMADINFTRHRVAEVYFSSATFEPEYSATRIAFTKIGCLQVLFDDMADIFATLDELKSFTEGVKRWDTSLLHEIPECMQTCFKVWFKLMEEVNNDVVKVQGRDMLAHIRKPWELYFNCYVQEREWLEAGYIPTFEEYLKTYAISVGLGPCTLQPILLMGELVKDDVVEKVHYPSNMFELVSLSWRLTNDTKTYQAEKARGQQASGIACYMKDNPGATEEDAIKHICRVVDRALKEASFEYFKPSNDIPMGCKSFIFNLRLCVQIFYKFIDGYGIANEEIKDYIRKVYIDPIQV

[2] = target: Farnesyl pyrophosphate synthase (IspA) (Escherichia coli, UniProt P22939); settings: Ref Ku et al., 2005, Weaver et al., 2015, cited from earlier work
Chain of Farnesyl pyrophosphate synthase (IspA) (P22939 whole entry): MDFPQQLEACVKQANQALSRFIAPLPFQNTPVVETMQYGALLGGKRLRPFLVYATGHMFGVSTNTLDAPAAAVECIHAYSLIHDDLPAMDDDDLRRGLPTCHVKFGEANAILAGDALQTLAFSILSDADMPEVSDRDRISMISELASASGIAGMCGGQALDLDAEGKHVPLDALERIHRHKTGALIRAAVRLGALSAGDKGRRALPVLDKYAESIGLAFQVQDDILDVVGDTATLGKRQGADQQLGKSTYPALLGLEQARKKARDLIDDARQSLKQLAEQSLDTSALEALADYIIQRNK

[3] = tested on: Geranylgeranyl pyrophosphate synthase (GGPPS); settings: reported elsewhere (Hefner et al., 1998); cited from earlier work
[4] = target: Geranylgeranyl pyrophosphate synthase (GGPPS) (Taxus canadensis, UniProt Q9ZPM3); assay: GGPPS activity by pyrophosphate formation (EnzChek pyrophosphate assay); type: biochemical; settings: reaction IPP + FPP; IPP varied with FPP held at 100 μM
Chain of Geranylgeranyl pyrophosphate synthase (GGPPS) (Taxus canadensis, UniProt Q9ZPM3) (Q9ZPM3 entry or part of it): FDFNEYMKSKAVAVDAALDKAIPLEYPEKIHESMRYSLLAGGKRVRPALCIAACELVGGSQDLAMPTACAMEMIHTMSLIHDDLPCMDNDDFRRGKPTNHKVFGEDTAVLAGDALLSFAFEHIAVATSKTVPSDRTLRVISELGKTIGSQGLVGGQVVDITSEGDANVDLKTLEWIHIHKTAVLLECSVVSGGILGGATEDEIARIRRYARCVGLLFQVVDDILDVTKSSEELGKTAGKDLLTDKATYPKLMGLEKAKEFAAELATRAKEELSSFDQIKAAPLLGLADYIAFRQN
Method: A single colony from each strain containing one plasmid for the expression of a single enzyme was inoculated into 5 mL of sterile LB media (BD Sciences) with kanamycin and grown overnight at 37° C. One milliliter was then inoculated into a 1 L flask containing 200 mL of sterile SOB media (AMERSCO) with kanamycin. The culture was grown at 30° C. until an optical density (OD) of 0.4-0.6 (λ=600 nm). At this point protein production was induced by the addition of IPTG for a final concentration of 0.1 mM and continued at 30° C. for 3 h. Cells were harvested by centrifugation at 3750 rpm in an Allegra X12R centrifuge (Beckman-Coulter). […] Enzymes were then exchanged into 50 mM Tris-HCl pH 7.5 using 10 kDa Microseps (Millipore) by centrifugation and repeated buffer exchanges until the imidazole was calculated to be under 1 mM. […] Enzyme concentration was determined using a bicinchoninic acid (BCA) assay kit from Pierce using bovine serum albumin as a standard (BSA). […] The kinetics for CK were previously determined as described. The kinetics for IPK were determined by ATP consumption using a pyruvate kinase (PK) lactate dehydrogenase (LDH) coupled assay (FIGS. 16A & 16B). […] NADH was made fresh each time and the appropriate concentration was determined by constructing a standard curve using a SpectraMax M3 and selecting the highest value in the linear range. […]

Compound: C=C(C)CCOP(=O)(O)O [IP, isopentenyl monophosphate]
- Km [1]: 21.7 µM
- kcat [1]: 45.5 S^−1
- effect on IPK activity (elasticity) (IPK): stimulatory
- effect on CK activity (elasticity) (CK): slightly inhibitory

Compound: CC(C)=CCC/C(C)=C/CC/C(C)=C/CC/C(C)=C/COP(=O)(O)OP(=O)(O)O [GGPP, geranylgeranyl diphosphate]
- Km (Taxadiene Synthase (TDS)): 43 µM
- kcat (Taxadiene Synthase (TDS)): 23.1 S^−1

Compound: C=C(C)CCO[P@@](=O)(O)OP(=O)(O)O [IPP, isopentenyl pyrophosphate]
- Km ([2]; reaction IPP + DMAPP): 29.3 µM
- Km ([2]; reaction IPP + GPP): 5.5 µM
- Km [3]: 6 µM
- Km [4]: 13.5 µM
